Earlier results as cited in patent US8551962B2, “High dosage doramectin formulation” (Zoetis LLC, priority 2009, dated 2013).

Conditions: beef cattle; single dose of 200 μg/Kg of body weight

CO[C@H]1C[C@H](O[C@H]2[C@H](C)O[C@@H](O[C@@H]3/C(C)=C/C[C@@H]4C[C@@H](C[C@]5(C=C[C@H](C)[C@@H](C6CCCCC6)O5)O4)OC(=O)[C@@H]4C=C(C)[C@@H](O)[C@H]5OC/C(=C\C=C\[C@@H]3C)[C@]54O)C[C@@H]2OC)O[C@@H](C)[C@@H]1O [doramectin]
withhold time: 35 days
